Laboratory results from patent US8765779B2, “Tricyclic derivatives and their pharmaceutical use and compositions” (Cephalon, Inc., priority 2009, dated 2014).
Counter-ions that a name gives are not always drawn.

biological target: T1, human 5-HT6 receptor (Homo sapiens, UniProt P50406); experiment: Human 5-HT6 Receptor Binding Assay ([3H]LSD displacement, scintillation beads); conditions: membranes of CHO-K1 cells with recombinant human 5-HT6, 4 nM [3H]LSD; Table 1, class symbols; read-out: h5-HT6 (Ki)
T1 construct: host or cells: CHO-K1 cells, stably transfected; membranes prepared in house
T1 sequence (P50406 whole entry): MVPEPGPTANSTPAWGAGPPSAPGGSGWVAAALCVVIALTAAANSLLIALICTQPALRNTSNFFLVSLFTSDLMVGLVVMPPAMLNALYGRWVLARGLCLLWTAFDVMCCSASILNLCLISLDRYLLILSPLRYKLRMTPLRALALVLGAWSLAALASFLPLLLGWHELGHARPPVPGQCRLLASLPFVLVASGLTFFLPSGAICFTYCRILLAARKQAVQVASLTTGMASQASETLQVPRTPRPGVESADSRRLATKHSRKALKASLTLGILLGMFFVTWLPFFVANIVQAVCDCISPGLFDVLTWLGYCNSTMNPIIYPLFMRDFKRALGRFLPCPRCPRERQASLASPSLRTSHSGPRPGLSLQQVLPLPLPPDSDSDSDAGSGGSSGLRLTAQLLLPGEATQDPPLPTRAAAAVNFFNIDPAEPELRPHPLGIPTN

Compound | Ki [nM]
CC(C)S(=O)(=O)c1ccc2c3c(oc2c1)CNCC3 [Example 234] | > 1000
CC1(C)CNC2(CCOC2)c2oc3cc(S(=O)(=O)c4cncc(Cl)c4)ccc3c21 (centres unmarked) [Example 456] | < 500
O=S(=O)(c1cccc2c1OC1CNCCC21)c1cccc2ccccc12 (centres unmarked) [Example 184] | < 500
O=S(=O)(c1cncc(F)c1)c1ccc2c(c1)OC1CNCCC21 (centres unmarked) [Example 397] | > 1000
CC(C)Oc1cccc(S(=O)(=O)c2ccc3oc4c(c3c2)CCNC4)c1 [Example 267] | < 500
O=S(=O)(c1cccc(OCC2CCOCC2)c1)c1ccc2c(c1)OC1CNCCC21 (centres unmarked) [Example 581, 7-{[3-(tetrahydro-2H-pyran-4-ylmethoxy)phenyl]sulfonyl}-1,2,3,4,4a,9a-hexahydro[1]benzofuro[2,3-c]pyridine] | < 500
O=S(=O)(c1cccc(Cl)c1)c1ccc2c3c(oc2c1)C1CCCCN1CC3 (centres unmarked) [Example 620] | < 500
Cc1cc(S(=O)(=O)c2ccc3c4c(oc3c2)CNCC4)ccc1F [Example 218] | < 500
CC1(C)NCCc2c1oc1cc(S(=O)(=O)c3cccc(F)c3)ccc21 [Example 1, 7-[(3-Fluorophenyl)sulfonyl]-1,1-dimethyl-1,2,3,4-tetrahydro[1]benzofuro[2,3-c]pyridine] | < 500
O=S(=O)(Oc1ccc2c(c1)C1CCNCC1O2)c1ccccn1 (centres unmarked) [Example 753] | > 1000
CC12CCNCC1Oc1cc(S(=O)(=O)c3cncc(F)c3)ccc12 (centres unmarked) [Example 429] | > 1000
Cc1noc(C)c1S(=O)(=O)Oc1ccc2c(c1)OC1CNCCC21 (centres unmarked) [Example 646] | 500 to 1000
CC(C)c1ccc(S(=O)(=O)Nc2ccc3c(c2)C2CCNCC2O3)cc1 (centres unmarked) [Example 824] | > 1000
O=S(=O)(Nc1ccc2c(c1)C1CCNCC1O2)c1cc(Cl)cc(Cl)c1 (centres unmarked) [Example 828] | < 500
CC12CCNCC1Oc1ccc(OS(=O)(=O)c3ccc(C(F)(F)F)cc3)cc12 (centres unmarked) [Example 778] | > 1000
O=S(=O)(c1cc(F)cc(OCc2ccccc2)c1)c1ccc2c(c1)OC1CNCCC21 (centres unmarked) [Example 484] | < 500
CC12CCNCC1Oc1ccc(OS(=O)(=O)c3ccccc3)cc12 (centres unmarked) [Example 759] | > 1000
Cc1cccc(S(=O)(=O)c2ccc3c4c(oc3c2)CNCC4)n1 [Example 343, 7-[(6-methylpyridin-2-yl)sulfonyl]-1,2,3,4-tetrahydro[1]benzofuro[2,3-c]pyridine] | < 500
O=[N+]([O-])c1ccc(S(=O)(=O)c2ccc3c(c2)C2CCNCC2O3)cc1 (centres unmarked) [Example 177] | > 1000
CC(C)CC1(C)NCCc2c1oc1cc(S(=O)(=O)c3cccc(F)c3)ccc21 (racemic) [Example 36, 7-[(3-fluorophenyl)sulfonyl]-1-methyl-1-(2-methylpropyl)-1,2,3,4-tetrahydro[1]benzofuro[2,3-c]pyridine] | < 500
O=S(=O)(Oc1ccc2c(c1)OC1CNCCC21)c1ccccn1 (centres unmarked) [Example 689] | > 1000
CC1(C)NCCc2c1oc1cc(S(=O)(=O)c3cccnc3C(F)(F)F)ccc21 [Example 378] | < 500
O=S(=O)(c1ccc(Cl)cc1)c1cccc2c1OC1CNCCC21 (centres unmarked) [Example 188] | < 500
CC(C)Oc1cccc(S(=O)(=O)c2ccc3c(c2)OC2CNCCC32)c1 (centres unmarked) [Example 165] | < 500
O=S(=O)(c1ccc2oc3c(c2c1)CCNC3)c1c(F)c(F)cc(F)c1F [Example 274] | < 500
Cc1c(Cl)cccc1S(=O)(=O)Oc1ccc2c(c1)C1CCNCC1O2 (centres unmarked) [Example 718] | < 500

Compound | Ki [nM]
O=S(=O)(Oc1ccc2c(c1)C1CCNCC1O2)c1ccccc1C(F)(F)F (centres unmarked) [Example 736] | > 1000
CN1CCC2(C)c3cc(OS(=O)(=O)Cc4ccccc4)ccc3OC2C1 (centres unmarked) [Example 809] | > 1000
COc1cc(OC)cc(S(=O)(=O)c2ccc3c(c2)OC2CNCCC32C)c1 (centres unmarked) [Example 489] | < 500
CC1(C(F)F)NCCc2c1oc1cc(S(=O)(=O)c3ccccc3)ccc21 (centres unmarked) [Example 524] | < 500
COc1ccc(F)cc1S(=O)(=O)c1ccc2c(c1)OC1CNCCC21 (centres unmarked) [Example 132] | > 1000
O=S(=O)(Oc1ccc2c(c1)C1CCNCC1O2)c1ccc(OC(F)(F)F)cc1 (centres unmarked) [Example 744] | > 1000
COc1cncc(S(=O)(=O)c2ccc3c4c(oc3c2)C(C)(C)NCC4)c1 [Example 370] | < 500
O=S(=O)(c1cccc(F)c1)c1ccc2oc3c(c2c1)CCNC3CCBr (centres unmarked) [Example 514] | < 500
CC(C)Oc1cccc(S(=O)(=O)c2ccc3c(c2)OC2CNCCC32)c1F (centres unmarked) [Example 481] | < 500
CC(=O)N(C)CCC1NCCc2c1oc1cc(S(=O)(=O)c3cccc(F)c3)ccc21 (racemic) [Example 538, N-(2-{7-[(3-fluorophenyl)sulfonyl]-1,2,3,4-tetrahydro[1]benzofuro[2,3-c]pyridin-1-yl}ethyl)-N-methylacetamide] | < 500
O=S(=O)(c1ccc2c3c(oc2c1)CNCC3)c1cc(Cl)ccc1Cl [Example 215, 7-[(2,5-dichlorophenyl)sulfonyl]-1,2,3,4-tetrahydro[1]benzofuro[2,3-c]pyridine] | < 500
O=S(=O)(c1ccc2c(c1)OC1CNCCC21)c1cc(F)cc(F)c1F (centres unmarked) [Example 412] | < 500
O=S(=O)(c1cccc(OCc2ccccn2)c1)c1ccc2c(c1)OC1CNCCC21 (centres unmarked) [Example 562] | < 500
O=S(=O)(c1cccc(OCC2CCOCC2)c1)c1ccc2c(c1)OC1CNCCC21 (centres unmarked) [Example 570, 7-{[3-(tetrahydro-2H-pyran-4-ylmethoxy)phenyl]sulfonyl}-1,2,3,4,4a,9a-hexahydro[1]benzofuro[2,3-c]pyridine] | < 500
CC12CCNCC1Oc1ccc(S(=O)(=O)c3ccccc3)cc12 (centres unmarked) [Example 62, 4a-Methyl-6-(phenylsulfonyl)-1,2,3,4,4a,9a-hexahydro[1]benzofuro[2,3-c]pyridine hydrochloride] | > 1000
O=S(=O)(Oc1ccc2c(c1)OC1CNCCC21)c1ccc2ccccc2c1 (centres unmarked) [Example 661] | < 500
O=S(=O)(c1ccc2oc3c(c2c1)CCNC3)c1cc(Cl)ccc1Cl [Example 266, 6-[(2,5-dichlorophenyl)sulfonyl]-1,2,3,4-tetrahydro[1]benzofuro[2,3-c]pyridine] | < 500
O=S(=O)(c1ccc(OC(F)(F)F)cc1)c1ccc2oc3c(c2c1)CCNC3 [Example 275, 6-{[4-(trifluoromethoxy)phenyl]sulfo-nyl}-1,2,3,4-tetrahydro[1]benzofuro[2,3-c]pyridine] | 500 to 1000
O=S(=O)(c1ccc2c(c1)OC1CNCCC21)c1cccc2c1OCCO2 (centres unmarked) [Example 462] | > 1000
[O-][S+](c1cncc(F)c1)c1ccc2c(c1)OC1CNCCC21 (centres unmarked) [Example 396] | > 1000
O=S(=O)(c1ccc2c3c(oc2c1)CNCC3)c1cccnc1OCC(F)(F)F [Example 440] | < 500
Cc1cc(S(=O)(=O)c2ccc3oc4c(c3c2)CCNC4)ccc1F [Example 268] | < 500
CC(=O)Nc1ccc(S(=O)(=O)c2ccc3c(c2)OC2CNCCC32)cc1 (centres unmarked) [Example 140] | < 500
CC(C)c1ccc(S(=O)(=O)c2ccc3oc4c(c3c2)CCNC4)cc1 [Example 259] | < 500
O=S(=O)(c1cccc(OCc2cnccn2)c1)c1ccc2c(c1)OC1CNCCC21 (centres unmarked) [Example 567] | < 500

same assay, conditions: membranes of CHO-K1 cells with recombinant human 5-HT6, 4 nM [3H]LSD; specific data; read-out: h5-HT6 (Ki)

Compound | Ki [nM]
CC1(C)NCCc2c1oc1cc(S(=O)(=O)c3cccc(F)c3)ccc21 [Example 1, 7-[(3-Fluorophenyl)sulfonyl]-1,1-dimethyl-1,2,3,4-tetrahydro[1]benzofuro[2,3-c]pyridine] | 1.5
Cc1cccc(S(=O)(=O)c2ccc3c4c(oc3c2)CNCC4)n1 [Example 343, 7-[(6-methylpyridin-2-yl)sulfonyl]-1,2,3,4-tetrahydro[1]benzofuro[2,3-c]pyridine] | 6.6
